Biological target: Human LDHA (Homo sapiens (Human), UniProt P00338)
Test: human LDHA primary biochemical assay (resazurin/diaphorase coupled, fluorescence)
Settings: LDHA inhibitory activity, activity level based on IC50 (Table 7)
Text: Test compounds were placed in a Greiner Bio-One (Monroe, N.C.) 1536-well black solid bottom assay plate. 200 millimolar (mM) Tris HCl, pH 7.4, 100 micromolar […] EDTA and 0.01% TWEEN-20™, final concentration, was used as the assay buffer. The LDHA reagent was 2 nanomolar (nM) Human LDHA (Meridian Life Science, Inc., Memphis, Tenn.), final concentration, in assay buffer.

Which IC50 does the source give for `NS(=O)(=O)c1ccc(Cc2c(C3CC3)nn(-c3nc(C(=O)O)cs3)c2-c2cccc(-c3ccc(F)cc3)c2)c(F)c1` [Compound 356] here?
The IC50 was 1000 to 57000 nM.

With `NS(=O)(=O)c1ccc(Cc2c(-c3ccc(F)c(/C=C/C4CCCC4)c3)nn(-c3nc(C(=O)O)cs3)c2CC2CC2)cc1F` [Compound 535, (E)-2-(3-(3-(2-cyclopentylvinyl)-4-fluorophenyl)-5-(cyclopropylmethyl)-4-(3-fluoro-4-sulfamoylbenzyl)-1H-pyrazol-1-yl)thiazole-4-carboxylic acid] as the molecule, how does the IC50 read?
The IC50 was under 100 nM.

For `COc1cccc(-c2cc(-c3nn(-c4nc(C(=O)O)cs4)cc3Cc3ccc(S(N)(=O)=O)cc3)ccc2F)c1` [Compound 456, 2-(3-(6-fluoro-3′-methoxy-[1,1′-biphenyl]-3-yl)-4-(4-sulfamoylbenzyl)-1H-pyrazol-1-yl)thiazole-4-carboxylic acid], which IC50 is on record?
Its IC50 is under 100 nM.

With `C/C=C(\C)c1cc(-c2nn(-c3nc(C(=O)O)cs3)c(CC3CC3)c2Cc2ccc(S(N)(=O)=O)c(F)c2)ccc1F` [Compound 450] as the molecule, how does the IC50 read?
The IC50 was under 100 nM.

Same assay, conditions: LDHA inhibitory activity, assay of Example 1; activity level classes

How did the IC50 turn out when `NS(=O)(=O)c1ccc(Cc2c(-c3cccc(-c4ccccc4)c3)nn(-c3nc(C(=O)O)cs3)c2C2CC2(F)F)cc1` (stereo not shown) [Compound 205, 2-(3-([1,1′-biphenyl]-difluorocyclopropyl)-4-(4-sulfamoylbenzyl)-1H-pyrazol-1-yl)thiazole-4-carboxylic acid] was run?
Its IC50 is under 100 nM.

For `NS(=O)(=O)c1ccc(NCc2c(-c3ccccc3)n[nH]c2O)cc1` [Compound 49, 4-(((5-hydroxy-3-phenyl-1H-pyrazol-4-yl)methyl)amino)benzenesulfonamide], which IC50 is on record?
Its IC50 is over 57000 nM.

Which IC50 does the source give for `O=C(O)c1csc(-n2cc(Cc3ccc(C(F)(F)F)cc3)c(-c3ccccc3)n2)n1` [Compound 28, 2-(3-phenyl-4-(4-(trifluoromethyl)benzyl)-1H-pyrazol-1-yl)thiazole-4-carboxylic acid] here?
Its IC50 is over 57000 nM.

Which IC50 does the source give for `O=C(O)c1csc(-n2nc(-c3cccc(F)c3F)cc2O)n1` [Compound 96, 2-(3-(2,3-difluorophenyl)-5-hydroxy-1H-pyrazol-1-yl)thiazole-4-carboxylic acid] here?
Its IC50 is over 57000 nM.

Same assay, conditions: read-out: Inhibitory activity IC50

Which IC50 does the source give for `NS(=O)(=O)c1ccc(Cc2cn(-c3nc(C(O)C(F)(F)F)cs3)nc2-c2ccccc2)cc1` (stereo not shown) [Compound 154, 4-((3-phenyl-1-(4-(2,2,2-trifluoro-1-hydroxyethyl)thiazol-2-yl)-1H-pyrazol-4-yl)methyl)benzenesulfonamide] here?
Its IC50 is 100 to 1000 nM.

With `NS(=O)(=O)c1ccc(Cc2cn(-c3nc(C(=O)O)cs3)c3ccc(OC4CCOCC4)cc23)cc1` [Compound 36, 2-(3-(4-sulfamoylbenzyl)-5-((tetrahydro-2H-pyran-4-yl)oxy)-1H-indol-1-yl)thiazole-4-carboxylic acid] as the molecule, how does the IC50 read?
Its IC50 is 100 to 1000 nM.

Which IC50 does the source give for `NS(=O)(=O)c1ccc(Cc2cn(-c3nc(C(=O)O)cs3)c3ccc(C(=O)N4CCOCC4)cc23)cc1` [Compound 30, 2-(5-(morpholine-4-carbonyl)-3-(4-sulfamoylbenzyl)-1H-indol-1-yl)thiazole-4-carboxylic acid] here?
The IC50 was 1000 to 57000 nM.

For `CCOC(=O)c1csc(-n2cc(Nc3ccc(S(N)(=O)=O)cc3)c(-c3cccc(-c4ccccc4)c3)n2)n1` [Compound 162, ethyl 2-(3-([1,1′-biphenyl]-3-yl)-4-((4-sulfamoylphenyl)amino)-1H-pyrazol-1-yl)thiazole-4-carboxylate], which IC50 is on record?
The IC50 was 1000 to 57000 nM.

Which IC50 does the source give for `N[S+](=O)([O-])c1ccc(Cc2c(CC3CC3)nn(-c3nc(C(=O)O)cs3)c2-c2ccc(F)c(Br)c2)cc1` [Compound 295] here?
The IC50 was 1000 to 57000 nM.

With `Nc1c(Cc2ccc(S(N)(=O)=O)cc2)c(-c2ccccc2)nn1-c1cccc(C(=O)O)n1` [Compound 144, 6-(5-amino-3-phenyl-4-(4-sulfamoylbenzyl)-1H-pyrazol-1-yl)picolinic acid] as the molecule, how does the IC50 read?
Its IC50 is 1000 to 57000 nM.

For `NS(=O)(=O)c1ccc(Cc2nn(-c3nc(C(=O)O)cs3)c3ccccc23)cc1` [Compound 35, 2-(3-(4-sulfamoylbenzyl)-1H-indazol-1-yl)thiazole-4-carboxylic acid], which IC50 is on record?
Its IC50 is 1000 to 57000 nM.

With `N[S+](=O)([O-])c1ccc(Cc2c(CC3CC3)nn(-c3nc(C(=O)O)cs3)c2-c2ccc(F)c(-c3ccc(C4CC4)cc3)c2)cc1` [Compound 293] as the molecule, how does the IC50 read?
Its IC50 is 1000 to 57000 nM.
